Converted amounts (≈) assume the structure as drawn.
What follows are compounds tested on Septoria tritici (ATCC 26517) (assay: Minimum Inhibitory Concentration (MIC) (Septoria tritici), CLSI-based microdilution). Conditions: Zymoseptoria tritici, ATCC26517, 168 h; S. tritici ATCC 26517; 50% growth reduction; 7 days at 22 °C; read-out: Septoria Rating (MIC).
Assay type: cell-based
Procedure: C. Minimum Inhibitory Concentration (MIC) (Septoria tritici) Compounds of the present disclosure were assessed for their ability to inhibit the growth of a common strain of the fungal plant pathogen Septoria tritici (ATCC 26517) using a procedure based on a Clinical and Laboratory Standards Institute (CLSI) microdilution assay protocol for filamentous fungi. Stock solutions of the test compounds and standards were prepared in DMSO at 6400 μg/mL. Each stock solution was used to prepare a 2-fold dilution series ranging from 16 to 0.016 μg/mL (total of 11 compound concentrations) in RPMI-1640 (Roswell Park Memorial Institute) medium containing 3-(N-morpholino)propanesulfonic acid (MOPS) buffer and 2% DMSO. A 100 μL aliquot of the dilutions was added to columns 1 (16 μg/mL compound) through 11 (0.016 μg/mL compound) of a 96-well microtiter plate. This format was replicated in a second row of the microtiter plate. Thus, each microtiter plate could include 11 concentrations of four test or control compounds replicated twice. A 100 μL aliquot of RPMI-1640/MOPS/2% DMSO medium was added to column 12 (no compound control) of the microtiter plate. A fresh culture of S. tritici was used to prepare a solution of approximately 5×10^4 colony-forming units per milliliter (cfu/mL) in RPMI/MOPS medium without DMSO. A 100 μL aliquot of this solution was added to all 96 wells in the microtiter plate. […] The assay plates were incubated at 22° C. for seven days in the dark without shaking. […] In each case of Table 3 the rating scale is as follows: […]

| SMILES | MIC [µg/mL] |
| --- | --- |
| OC(Cn1cnnn1)(c1ccc(Cl)cc1F)C(F)(F)c1ccc2cc(Cl)ccc2n1 (stereo not drawn) [8(−), 2-(4-Chloro-2-fluorophenyl)-1-(6-chloroquinolin-2-yl)-1,1-difluoro-3-(1H-tetrazol-1-yl)propan-2-ol] | ≤ 0.5 |
| OC(Cn1cnnn1)(c1ccc(F)cc1F)C(F)(F)c1cnc2cc(Cl)ccc2n1 (stereo not drawn) [10(−), 1-(6-Chloroquinoxalin-2-yl)-2-(2,4-difluorophenyl)-1,1-difluoro-3-(1H-tetrazol-1-yl)propan-2-ol] | ≤ 0.5 |
| OC(Cn1cnnn1)(c1ccc(F)cc1F)C(F)(F)c1nc(Br)cs1 (centres unmarked) [Compound 2, 1-(4-Bromothiazol-2-yl)-2-(2,4-difluorophenyl)-1,1-difluoro-3-(1H-tetrazol-1-yl)propan-2-ol] | 1.5 to 4 (≈ 3.42 to 9.13 µM) |
| OC(Cn1cnnn1)(c1ccc(F)cc1F)C(F)(F)c1nc2ccccc2s1 (centres unmarked) [Compound 6, 1-(Benzo[d]thiazol-2-yl)-2-(2,4-difluorophenyl)-1,1-difluoro-3-(1H-tetrazol-1-yl)propan-2-ol] | ≤ 0.5 |
| OC(Cn1cnnn1)(c1ccc(F)cc1F)C(F)(F)c1nccs1 (centres unmarked) [Compound 12, 2-(2,4-Difluorophenyl)-1,1-difluoro-3-(1H-tetrazol-1-yl)-1-(thiazol-2-yl)propan-2-ol] | > 4 |
| OC(Cn1cnnn1)(c1ccc(F)cc1F)C(F)(F)c1cccs1 (centres unmarked) [Compound 14, 2-(2,4-Difluorophenyl)-1,1-difluoro-3-(1H-tetrazol-1-yl)-1-(thiophen-2-yl)propan-2-ol] | 0.5 to 1.5 (≈ 1.4 to 4.19 µM) |
| COc1ccc(C(O)(Cn2cnnn2)C(F)(F)c2ccc3cc(Cl)ccc3n2)cc1 (centres unmarked) [Compound 15, 1-(6-Chloroquinolin-2-yl)-1,1-difluoro-2-(4-methoxyphenyl)-3-(1H-tetrazol-1-yl)propan-2-ol] | 1.5 to 4 (≈ 3.47 to 9.26 µM) |
| OC(Cn1ncnn1)(c1ccc(F)cc1F)C(F)(F)c1ccc2cc(Cl)ccc2n1 (centres unmarked) [Compound 16, 1-(6-Chloroquinolin-2-yl)-2-(2,4-difluorophenyl)-1,1-difluoro-3-(2H-tetrazol-2-yl)propan-2-ol] | 0.5 to 1.5 (≈ 1.14 to 3.43 µM) |
| OC(Cn1cnnn1)(c1ccc(F)cc1F)C(F)(F)c1ccc2cc(F)ccc2n1 (centres unmarked) [Compound 17, 2-(2,4-Difluorophenyl)-1,1-difluoro-1-(6-fluoroquinolin-2-yl)-3-(1H-tetrazol-1-yl)propan-2-ol] | ≤ 0.5 |
| OC(Cn1cnnn1)(c1ccc(F)cc1F)C(F)(F)c1ccc2cc(OCC(F)(F)F)ccc2n1 (centres unmarked) [Compound 19, 2-(2,4-Difluorophenyl)-1,1-difluoro-3-(1H-tetrazol-1-yl)-1-(6-(2,2,2-trifluoroethoxy)quinolin-2-yl)propan-2-ol] | 0.5 to 1.5 (≈ 0.997 to 2.99 µM) |
| OC(Cn1cnnn1)(c1ccc(C(F)(F)F)cc1F)C(F)(F)c1ccc2cc(Cl)ccc2n1 (centres unmarked) [Compound 20, 1-(6-Chloroquinolin-2-yl)-1,1-difluoro-2-(2-fluoro-4-(trifluoromethyl)phenyl)-3-(1H-tetrazol-1-yl)propan-2-ol] | 0.5 to 1.5 (≈ 1.03 to 3.08 µM) |
| OC(Cn1cnnn1)(c1ccc(C(F)(F)F)cc1Cl)C(F)(F)c1ccc2cc(Cl)ccc2n1 (centres unmarked) [Compound 22, 2-(2-Chloro-4-(trifluoromethyl)phenyl)-1-(6-chloroquinolin-2-yl)-1,1-difluoro-3-(1H-tetrazol-1-yl)propan-2-ol] | 1.5 to 4 (≈ 2.97 to 7.93 µM) |
| OC(Cn1cnnn1)(c1ccc(F)c(F)c1)C(F)(F)c1ccc2cc(Cl)ccc2n1 (centres unmarked) [Compound 23, 1-(6-Chloroquinolin-2-yl)-2-(3,4-difluorophenyl)-1,1-difluoro-3-(1H-tetrazol-1-yl)propan-2-ol] | ≤ 0.5 |
| N#Cc1ccc2nc(C(F)(F)C(O)(Cn3cnnn3)c3ccc(F)cc3F)ccc2c1 (centres unmarked) [Compound 24, 2-(2-(2,4-Difluorophenyl)-1,1-difluoro-2-hydroxy-3-(1H-tetrazol-1-yl)propyl)quinoline-6-carbonitrile] | ≤ 0.5 |
| OC(Cn1cnnn1)(c1ccc(F)cc1F)C(F)(F)c1ccc2c(Cl)c(Cl)ccc2n1 (centres unmarked) [Compound 29, 1-(5,6-Dichloroquinolin-2-yl)-2-(2,4-difluorophenyl)-1,1-difluoro-3-(1H-tetrazol-1-yl)propan-2-ol] | ≤ 0.5 |
| OC(Cn1cnnn1)(c1ccc(F)cc1F)C(F)(F)c1ccc2c(OCC(F)(F)F)cccc2n1 (centres unmarked) [Compound 30, 2-(2,4-Difluorophenyl)-1,1-difluoro-3-(1H-tetrazol-1-yl)-1-(5-(2,2,2-trifluoroethoxy)quinolin-2-yl)propan-2-ol] | 1.5 to 4 (≈ 2.99 to 7.98 µM) |
| OC(Cn1cnnn1)(c1ccc(F)cc1F)C(F)(F)c1ccc2c(Cl)cccc2n1 (centres unmarked) [Compound 31, 1-(5-Chloroquinolin-2-yl)-2-(2,4-difluorophenyl)-1,1-difluoro-3-(1H-tetrazol-1-yl)propan-2-ol] | 1.5 to 4 (≈ 3.43 to 9.14 µM) |
| OC(Cn1cnnc1)(c1ccc(F)cc1F)C(F)(F)c1ccc2cc(Cl)ccc2n1 (centres unmarked) [Compound 35, 1-(6-Chloroquinolin-2-yl)-2-(2,4-difluorophenyl)-1,1-difluoro-3-(4H-1,2,4-triazol-4-yl)propan-2-ol] | 1.5 to 4 (≈ 3.43 to 9.16 µM) |
| OC(Cn1cnnn1)(c1ccc(F)cc1F)C(F)(F)c1ccc(-c2ccc(OCC(F)(F)F)cc2)nc1 (centres unmarked) [Compound 36, 2-(2,4-Difluorophenyl)-1,1-difluoro-3-(1H-tetrazol-1-yl)-1-(6-(4-(2,2,2-trifluoroethoxy)phenyl)pyridin-3-yl)propan-2-ol] | 1.5 to 4 (≈ 2.84 to 7.58 µM) |
| OC(Cn1cnnn1)(c1ccc(F)cc1F)C(F)(F)c1cnc(-c2ccc(Cl)cc2)cn1 (centres unmarked) [Compound 40, 1-(5-(4-Chlorophenyl)pyrazin-2-yl)-2-(2,4-difluorophenyl)-1,1-difluoro-3-(1H-tetrazol-1-yl)propan-2-ol] | 0.5 to 1.5 (≈ 1.08 to 3.23 µM) |
| OC(Cn1cnnn1)(c1ccc(F)cc1F)C(F)(F)c1cnc(-c2ccc(OCC(F)(F)F)cc2)cn1 (centres unmarked) [Compound 41, 2-(2,4-Difluorophenyl)-1,1-difluoro-3-(1H-tetrazol-1-yl)-1-(5-(4-(2,2,2-trifluoroethoxy)phenyl)pyrazin-2-yl)propan-2-ol] | ≤ 0.5 |
| OC(Cn1cnnn1)(c1ccc(F)cc1F)C(F)(F)c1cnc(-c2ccc(F)c(F)c2)cn1 (centres unmarked) [Compound 44, 2-(2,4-Difluorophenyl)-1-(5-(3,4-difluorophenyl)pyrazin-2-yl)-1,1-difluoro-3-(1H-tetrazol-1-yl)propan-2-ol] | 0.5 to 1.5 (≈ 1.07 to 3.22 µM) |
| OC(Cn1cnnn1)(c1ccc(F)cc1)C(F)(F)c1cnc(-c2ccc(OC(F)(F)F)cc2)cn1 (centres unmarked) [Compound 45, 1,1-Difluoro-2-(4-fluorophenyl)-3-(1H-tetrazol-1-yl)-1-(5-(4-(trifluoromethoxy)phenyl)pyrazin-2-yl)propan-2-ol] | 1.5 to 4 (≈ 3.02 to 8.06 µM) |
| OC(Cn1cnnn1)(c1ccc(F)cc1F)C(F)(F)c1cnc(-c2ccc(F)cc2)cn1 (centres unmarked) [Compound 46, 2-(2,4-Difluorophenyl)-1,1-difluoro-1-(5-(4-fluorophenyl)pyrazin-2-yl)-3-(1H-tetrazol-1-yl)propan-2-ol] | 0.5 to 1.5 (≈ 1.12 to 3.35 µM) |
| OC(Cn1ncnn1)(c1ccc(F)cc1F)C(F)(F)c1cnc(-c2ccc(F)cc2)cn1 (centres unmarked) [Compound 47, 2-(2,4-Difluorophenyl)-1,1-difluoro-1-(5-(4-fluorophenyl)pyrazin-2-yl)-3-(2H-tetrazol-2-yl)propan-2-ol] | > 4 |
| OC(Cn1cnnn1)(c1ccc(F)cc1F)C(F)(F)c1cnc(C#Cc2ccc(F)cc2)cn1 (centres unmarked) [Compound 50, 2-(2,4-Difluorophenyl)-1,1-difluoro-1-(5-((4-fluorophenyl)ethynyl)pyrazin-2-yl)-3-(1H-tetrazol-1-yl)propan-2-ol] | ≤ 0.5 |

From US8883797B2, “Metalloenzyme inhibitor compounds” (Viamet Pharmaceuticals, Inc., priority 2011, dated 2014)
